Results published in the CombiSolv-Exp solvation set (Vermeire and Green 2021).

Test: solvent given as SMILES

C=CCC
Settings	solvation free energy, 298 K [kcal/mol]
in C1CCCCC1	-2.47
in CC#N	-1.86
in CC(C)(C)O	-2.03
in CC(C)CC(C)(C)C	-2.26
in CC(C)CCO	-1.99
in CC(C)CO	-1.98
in CC(C)O	-1.98
in CCC(C)(C)O	-2.1
in CCC(C)CO	-1.98
in CCC(C)O	-1.99
in CCC(O)CC	-2.01
in CCCC(C)O	-2.01
in CCCCC	-2.53
in CCCCCC	-2.49
in CCCCCCC	-2.48
in CCCCCCCC	-2.45
in CCCCCCCCC	-2.43
in CCCCCCCCCC	-2.42
in CCCCCO	-2.01
in CCCCO	-2.01
in CCCO	-2.01
in CN(C)C=O	-1.78
in CO	-1.83
in COC(C)=O	-2.21
in Cc1ccc(C)cc1	-2.33
in Cc1cccc(C)c1	-2.3
in Cc1ccccc1C	-2.31
in ClC(Cl)(Cl)Cl	-2.5
in O	1.36
in O=CN1CCOCC1	-1.28

CC(=O)Nc1ccccc1
Settings	solvation free energy, 298 K [kcal/mol]
in C1COCCO1	-11.8
in O	-9.79

c1ccc2c(c1)sc1ccccc12
Settings	solvation free energy, 298 K [kcal/mol]
in CC(=O)N(C)C	-11.5
in CCCCCCCCC=CCCCCCCCC(=O)OCC(COC(=O)CCCCCCCC=CCCCCCCCC)OC(=O)CCCCCCCC=CCCCCCCCC	-10.6
in CN1CCCC1=O	-11.6
in O	-4.05

Nc1cccc([N+](=O)[O-])c1
Settings	solvation free energy, 298 K [kcal/mol]
in CC(C)CC(C)(C)C	-8.01
in O	-8.84

C#CC
Settings	solvation free energy, 298 K [kcal/mol]
in C1CCC2CCCCC2C1	-1.49
in C1COCCO1	-2.46
in CC1COC(=O)O1	-2.04
in CC(C)=O	-2.48
in CC(C)CC(C)(C)C	-1.66
in CCCCCCCCCCCCCCCC	-1.4
in CN1CCCC1=O	-2.47
in CN(C)C=O	-2.49
in CN(C)P(=O)(N(C)C)N(C)C	-2.6
in COC(C)=O	-2.51
in COCCOCCOCCOC	-2.03
in CS(C)=O	-2.14
in Nc1ccccc1	-2.01
in O	-0.48
in OCCCOCCCO	-1.53
in OCCO	-1.22
in OCc1ccccc1	-1.77

CCCCCBr
Settings	solvation free energy, 298 K [kcal/mol]
in O	-0.1

C1=CCCCC1
Settings	solvation free energy, 298 K [kcal/mol]
in C1CCC2CCCCC2C1	-4.21
in C1CCC(C2CCCCC2)CC1	-4.18
in CC#N	-3.43
in CC(=O)N(C)C	-3.48
in CCC(C)=O	-4
in CCCCCCCCO	-3.86
in CCCCCl	-4.37
in CCCCN(C=O)CCCC	-3.89
in CCN1CCCC1=O	-3.79
in CCN(CC)C(C)=O	-3.85
in CCNC(C)=O	-3.67
in CCNC=O	-3.52
in CN1CCCC1=O	-3.7
in CN1CCCCC1=O	-3.75
in CN(C)C=O	-3.66
in CNC(C)=O	-3.52
in CNC=O	-3.26
in COCCO	-3.48
in CS(C)=O	-3.13
in N#Cc1ccccc1	-3.95
in NC=O	-1.87
in O	0.36
in O=CN1CCOCC1	-3.21
in OCCO	-2
in OCCOCCO	-2.63
in OCCOCCOCCO	-2.73
in c1ccc2c(c1)CCCC2	-4.28
in c1ccc(C2CCCCC2)cc1	-4.19
in c1ccccc1	-4.47
